The record followed here is patent US9321809B2, “Macrocyclic compounds for suppressing replication of hepatitis C virus” (Ginkgo Pharma Co., Ltd., priority 2012, dated 2016).

pEC50: −log10 of the molar value.

This assay deals with HCV replicon-containing huh-7 cells (replicon 1b). Description: HCV Replicon Assay (luciferase readout). The following applies: Hepatitis C virus; HCV replicon 1b in huh-7 cells, 48 h incubation, 1% DMSO, luciferase signal; read-out: EC50 (EC 50 on replicon 1b). It counts as cell-based. As to the method: Compounds of formuala (I) are tested for the ability to inhibit viral replication of the Hepatitis C viruses by the following in vitro assays.
DMEM (Life Technologies #41965-039) was supplemented with 10% FBS, 2 mM L-glutamine (Life Technologies #25030-024), penicillin (100 units/ml)/streptomycin (100 micrograms/ml) (Life Technologies #15140-114), 1× non-essential amino acids (Life Technologies #11140-035).
Complete media was prepared by mixing FBS, DMEM media with Geneticin (G418). The compete media was preincubated at 37° C. in a CO2 incubator. Then, HCV replicon-containing huh-7 cells (V. Lohmann et. al. Science, 285, (1999)110-113) was taken out from 37° C. incubator. The residual medium was absorbed, and the cells were washed with PBS. After washing fluid was removed, 1 ml 0.25% trypsin/0.02% EDTA solution. The cells were washed by the above trypsin/EDTA solution to make sure that each cell was cleaned. After the trypsin/EDTA solution was absorbed, the mixture was incubated at 37° C. in a CO2 incubator for 3-5 minutes. Morphological changes were observed by inverted microscope, till the cells were detached from the wall of container completely.
3 ml of complete media was added to make the cells to suspend. The cells are counted with hematometer. Appropriate volumes of the complete media was added to adjust the cell density to 100,000/ml. Cells were plated with 100 μl of suspension at 10,000/well of 96 well plate. Plates were placed into 37° C. 5% CO2 incubator for 24 h.
Preparation of Drug Solution:
Drugs were diluted under aseptic conditions.
Stock solutions may be prepared before the assay, which means that the test compounds are dissolved in 100% DMSO to afford a final concentration of 2 mM. Before the 96 well culture was completed, the stock solution was diluted with culter media to 100 fold of the final concentration (100× solution).
96-well plates were taken out from 37° C. CO2 incubator and morphological changes were observed by inverted microscope. In a ventilator, 1 μl of 100× drug solution was added to wells of 96 well plate until the final concentration of DMSO in the mixture is 1%. The plates were incubated at 37° C. in a CO2 environment for 48 h. 30 μl of Stead-G1® Luciferase Assay System (bought from Promega) was added to each well of 96 well plates and each plate is shaken in a plate shaker for 5 minutes to ensure cells cleavaged completely. The fluorescence signal was quantitated in a Perkin-Elmer plate reader (Envision) and integral time was setted to be 2 second. The following data were achieved after recording and analyzing the data.
A general note: Replicon systems follow genome replication, usually without infectious particles.

For `CC[C@@H]1C[C@]1(NC(=O)[C@@H]1C[C@@H]2CN1C(=O)[C@H](C(C)(C)C)NC(=O)[C@@H](NC(=O)OC(C)(C)C)COCCCc1cccc3c1CN(C3)C(=O)O2)C(=O)NS(=O)(=O)C1CC1` [Compound IIa-14, tert-butyl N-[(1R,17S,20S,23S)-20-tert-butyl-23-{[(1R,2R)-1-[(cyclopropanesulfonyl)carbamoyl]-2-ethylcyclopropyl]carbamoyl}-3,18,21-trioxo-2,15-dioxa-4,19,22-triazatetracyclo[20.2.1.1^4,7.0^6,11]hexacosa-6,8,10-trien-17-yl]carbamate], the pEC50 was 6.30 to 7.30. Turning to `C=C[C@@H]1C[C@]1(NC(=O)[C@@H]1C[C@@H]2CN1C(=O)[C@H](C(C)(C)C)NC(=O)[C@@H](NC(=O)OC1CCCC1)COC/C=C/c1cccc3c1CN(C3)C(=O)O2)C(=O)NS(=O)(=O)C1CC1` [Compound IIa-11, cyclopentyl N-[(1R,12E,17S,20S,23S)-20-tert-butyl-23-{[(1R,2S)-1-[(cyclopropanesulfonyl)carbamoyl]-2-ethenylcyclopropyl]carbamoyl}-3,18,21-trioxo-2,15-dioxa-4,19,22-triazatetracyclo[20.2.1.1^4,7.0^6,11]hexacosa-6,8,10,12-tetraen-17-yl]carbamate], the pEC50 was over 8.00. Take `C=C[C@@H]1C[C@]1(NC(=O)[C@@H]1C[C@@H]2CN1C(=O)[C@H](C(C)(C)C)NC(=O)[C@@H](NC(=O)OC(C)(C)C)COCCCc1cccc3c1CN(C3)C(=O)O2)C(=O)NS(=O)(=O)C1CC1` [Compound IIa-13, tert-butyl N-[(1R,17S,20S,23S)-20-tert-butyl-23-{[(1R,2S)-1-[(cyclopropanesulfonyl)carbamoyl]-2-ethenylcyclopropyl]carbamoyl}-3,18,21-trioxo-2,15-dioxa-4,19,22-triazatetracyclo[20.2.1.1^4,7.0^6,11]hexacosa-6,8,10-trien-17-yl]carbamate]: the pEC50 was 7.30 to 8.00.

For the compound `C=C[C@@H]1C[C@]1(NC(=O)[C@@H]1C[C@@H]2CN1C(=O)[C@H](C(C)(C)C)NC(=O)[C@H](N)COC/C=C/c1cccc3c1CN(C3)C(=O)O2)C(=O)NS(=O)(=O)C1CC1` [Compound IIa-4, (1R,12E,17R,20S,23S)-17-amino-20-tert-butyl-N-[(1R,2S)-1-[(cyclopropanesulfonyl)carbamoyl]-2-ethenylcyclopropyl]-3,18,21-trioxo-2,15-dioxa-4,19,22-triazatetracyclo[20.2.1.1^4,7.0^6,11]hexacosa-6,8,10,12-tetraene-23-carboxamide], the pEC50 was 4.70 to 6.30. Consider `C=C[C@@H]1C[C@]1(NC(=O)[C@@H]1C[C@@H]2CN1C(=O)[C@H](C1CCCCC1)NC(=O)[C@@H](NC(=O)OC(C)(C)C)COC/C=C/c1cc3c(nccc3cc1OC)O2)C(=O)O` [Compound IIb-7, tert-butyl N-[(3R,5S,8S,11S,15E)-8-cyclohexyl-5-{[(1R,2S)-1-hydroxycarbonyl-2-ethenylcyclopropyl]carbamoyl}-18-methoxy-7,10-dioxo-2,13-dioxa-6,9,23-triazatetracyclo[15.6.2.13,6.020,24]hexacosa-1(23),15,17(25),18,20(24),21-hexaen-11-yl]carbamate], for which the pEC50 is 4.70 to 6.30.

In the case of `C=C[C@@H]1C[C@]1(NC(=O)[C@@H]1C[C@@H]2CN1C(=O)[C@H](C1CCCC1)NC(=O)[C@@H](NC(=O)OC(C)(C)C)COC/C=C/c1cccc3c1CN(C3)C(=O)O2)C(=O)NS(=O)(=O)C1CC1` [Compound IIa-22, tert-butyl N-[(1R,12E,17S,20S,23S)-20-cyclopentyl-23-{[(1R,2S)-1-[(cyclopropanesulfonyl)carbamoyl]-2-ethenylcyclopropyl]carbamoyl}-3,18,21-trioxo-2,15-dioxa-4,19,22-triazatetracyclo[20.2.1.1^4,7.0^6,11]hexacosa-6,8,10,12-tetraen-17-yl]carbamate], the pEC50 is over 8.00. For `C=C[C@@H]1C[C@]1(NC(=O)[C@@H]1C[C@@H]2CN1C(=O)[C@H](C(C)(C)C)NC(=O)[C@@H](NC(C)=O)COC/C=C/c1cccc3c1CN(C3)C(=O)O2)C(=O)NS(=O)(=O)C1CC1` [Compound IIa-7, (1R,12E,17S,20S,23S)-20-tert-butyl-N-[(1R,2S)-1-[(cyclopropanesulfonyl)carbamoyl]-2-ethenylcyclopropyl]-17-acetamido-3,18,21-trioxo-2,15-dioxa-4,19,22-triazatetracyclo[20.2.1.1^4,7.0^6,11]hexacosa-6,8,10,12-tetraene-23-carboxamide] the value was 6.30 to 7.30; for `C=C[C@@H]1C[C@]1(NC(=O)[C@@H]1C[C@@H]2CN1C(=O)[C@H](C(C)(C)C)NC(=O)[C@@H](NC(=O)OC(C)(C)C)COC/C=C/c1cc3c(nccc3cc1OC)O2)C(=O)NS(=O)(=O)C1CC1` [Compound IIb-1, tert-butyl N-[(3R,5S,8S,11S,15E)-8-tert-butyl-5-{[(1R,2S)-1-[(cyclopropanesulfonyl)carbamoyl]-2-ethenylcyclopropyl]carbamoyl}-18-methoxy-7,10-dioxo-2,13-dioxa-6,9,23-triazatetracyclo[15.6.2.1^3,6.0^20,24]hexacosa-1(23),15,17(25),18,20(24),21-hexaen-11-yl]carbamate], over 8.00; for `C=C[C@@H]1C[C@]1(NC(=O)[C@@H]1C[C@@H]2CN1C(=O)[C@H](C(C)(C)C)NC(=O)[C@@H](N)COC/C=C/c1cccc3c1CN(C3)C(=O)O2)C(=O)NS(=O)(=O)C1CC1` [Compound IIa-2, (1R,12E,17S,20S,23S)-17-amino-20-tert-butyl-N-[(1R,2S)-1-[(cyclopropanesulfonyl)carbamoyl]-2-ethenylcyclopropyl]-3,18,21-trioxo-2,15-dioxa-4,19,22-triazatetracyclo[20.2.1.1^4,7.0^6,11]hexacosa-6,8,10,12-tetraene-23-carboxamide], 7.30 to 8.00. For `CC[C@@H]1C[C@]1(NC(=O)[C@@H]1C[C@@H]2CN1C(=O)[C@H](C1CCCCC1)NC(=O)[C@@H](NC(=O)OC(C)(C)C)COC/C=C/c1cc3c(nccc3cc1OC)O2)C(=O)NS(=O)(=O)C1CC1` [Compound IIb-5, tert-butyl N-[(3R,5S,8S,11S,15E)-8-cyclohexyl-5-{[(1R,2R)-1-[(cyclopropanesulfonyl)carbamoyl]-2-ethylcyclopropyl]carbamoyl}-18-methoxy-7,10-dioxo-2,13-dioxa-6,9,23-triazatetracyclo[15.6.2.1^3,6.0^20,24]hexacosa-1(23),15,17(25),18,20(24),21-hexaen-11-yl]carbamate] the value was 7.30 to 8.00; for `C=C[C@@H]1C[C@]1(NC(=O)[C@@H]1C[C@@H]2CN1C(=O)[C@H](C(C)(C)C)NC(=O)[C@H](NC(=O)c1cnccn1)COC/C=C/c1cccc3c1CN(C3)C(=O)O2)C(=O)NS(=O)(=O)C1CC1` [Compound IIa-6, (1R,12E,17R,20S,23S)-20-tert-butyl-23-N-[(1R,2S)-1-[(cyclopropanesulfonyl)carbamoyl]-2-ethenylcyclopropyl]-3,18,21-trioxo-17-C-pyrazine-2-2,15-dioxa-4,19,22-triazatetracyclo[20.2.1.1^4,7.0^6,11]hexacosa-6,8,10,12-tetraene-17,23-diamido], 6.30 to 7.30.

Broadly, the pEC50 is the EC50 on a negative log10 scale, so that one unit is a factor of ten.
